Assay results reported in patent US11026946B2, “Pharmacologically active alicyclic-substituted pyrazolo[1,5-a]pyrimidine derivatives” (RICHTER GEDEON NYRT., priority 2017, dated 2021).
pEC50: −log10 of the molar value.

Columns and labels:
[1] = biological target: T1, GABAB receptor (Rattus norvegicus, UniProt O88871+Q9Z0U4); experiment: In vitro [35S]GTPγS binding assay in rat cortical membranes; format: biochemical; details: PAM EC50, [35S]GTPγS binding, read-out: In vitro PAM potency
T1 construct: from tissue; host or cells: rat brain cortex membranes
Procedure: In Vitro [^35S]GTPγS Binding Assay in Rat Cortical Membranes
Cortices of freshly harvested rat brains were dissected on an ice-cold surface and homogenized by a glass Dounce homogeniser immediately in ice-cold buffer containing 50 mM Tris, 5 mM MgCl2 and 1 mM EDTA (pH=7.6). Tissue homogenates were centrifuged at 40000 g for 15 min at 4° C. Membrane pellets were resuspended in the same buffer and membranes were incubated for 10 min at 30° C. in a shaking water bath to eliminate endogenous GABA. Homogenates were centrifuged again under the same conditions. The final pellets were resuspended in ice-cold buffer (pH=7.6) containing 50 mM Tris, 100 mM NaCl, 7 mM MgCl2, 1 mM EDTA and 1 mM dithiotreithol (DTT) to yield a concentration of 20 mg tissue weight/ml and frozen at −70° C. until use. The assay was done in a buffer containing 50 mM Tris (pH=7.4), 100 mM NaCl, 7 mM MgCl2, 1 mM EDTA and 1 mM DTT. Each assay tube contained 150 μL GDP (in a final concentration of 50 μM), 100 μL ligand and 125 μL of the membrane suspension (250 μg tissue/tube). The assay tubes were preincubated for 10 min at 30° C. to assure equilibrium. Nonspecific binding was determined in the presence of 10 μM GTPγS: basal binding was determined in the presence of buffer only. After addition of 50 pM [^35S]GTPγS in a volume of 25 μL to the tubes, membranes were incubated for an additional 60 min at 30° C. The assay was terminated by rapid filtration through Packard UniFilter GF/B using a Packard harvester and washed four times with 1 ml ice-cold buffer. After drying the filters at 40° C. for 1 h, 40 μL Microscint (Packard) was added to the filters and radioactivity of the filters was determined by a TopCount NXT (PerkinElmer, Waltham, Mass.: Alper and Nelson, Eur. J. Pharmacol. 1998, 343, 303-312; Rinken et al, Biochem. Pharmacol. 1999, 57, 155-162). Data thus gathered were used to determine PAM EC50 values for each compound as primary in vitro activity end point.

[2] = tested on: adult rats; experiment: Foot shock-induced ultrasonic vocalization (USV) in adult rats; format: in vivo, rat; details: 1 mg/kg per os, 1 h before shocking, male Wistar rats, versus vehicle
Procedure: Foot Shock-Induced Ultrasonic Vocalization (USV) in Adult Rats
(§1) Under stressful conditions, adult rats emit 22 kHz ultrasounds that can be reduced by various pharmacological treatments (De Vry et al, Eur. J. Pharmacol. 1993, 249, 331-339; Sanchez, Eur. J. Pharmacol. 2003, 463, 133-143). […] Therefore, a foot shock-induced vocalization paradigm in adult rats was used to assess efficacy of centrally acting GABAB receptor ligands. Behavioral measurements were carried out on male Wistar rats (200-250 g, Toxicoop, Hungary). Rats were housed in groups of four in plastic cages with a wire grid top in a temperature and light-controlled laboratory animal care unit (22±2° C., 12-h light/dark cycle, lights on at 6:00 AM) with ad libitum access to commercial pellet rat food and tap water. Investigations were approved by the Local Ethical Committee of Gedeon Richter Plc. and were carried out in strict compliance with the European Directive 2010/63/EU regarding the care and use of laboratory animals for experimental procedures and all efforts were made to minimize the number of animals as well as their suffering. In order to evoke emission of ultrasounds, animals were footshocked after a habituation period of 30 s (6 shocks, 1 s, 0.8 mA each, inter-shock interval 10 s) in a sound attenuated shocking chamber (Experimetria, 40×40×80 cm). Investigational compounds were administered at the dose of 1 mg/kg in a solid dispersion formulation in distilled water 1 h before shocking per os. Vocalizations were measured right after the last footshock for 10 min with a Metris Sonotrack system and the total time of vocalizations was registered. Vocalization of parallel vehicle treated animals was considered as control value and inhibition percent was calculated for each compound. At approximately 75 min after treatment and behavioral measurements, blood and brain samples were harvested in order to determine exposures associated with in vivo activity.

[3] = Plasma and brain levels after the USV assay; format: in vivo, rat; details: 1 mg/kg per os, approximately 75 min after treatment; for brain exposure at 1 mg/kg: rat brain; for plasma exposure at 1 mg/kg: rat plasma
Procedure: as §1
In Table 2 compounds of this invention measured in the USV assay are listed. In Table 3 plasma and brain levels of compounds of this invention are listed.

T1 sequence (O88871 41-940): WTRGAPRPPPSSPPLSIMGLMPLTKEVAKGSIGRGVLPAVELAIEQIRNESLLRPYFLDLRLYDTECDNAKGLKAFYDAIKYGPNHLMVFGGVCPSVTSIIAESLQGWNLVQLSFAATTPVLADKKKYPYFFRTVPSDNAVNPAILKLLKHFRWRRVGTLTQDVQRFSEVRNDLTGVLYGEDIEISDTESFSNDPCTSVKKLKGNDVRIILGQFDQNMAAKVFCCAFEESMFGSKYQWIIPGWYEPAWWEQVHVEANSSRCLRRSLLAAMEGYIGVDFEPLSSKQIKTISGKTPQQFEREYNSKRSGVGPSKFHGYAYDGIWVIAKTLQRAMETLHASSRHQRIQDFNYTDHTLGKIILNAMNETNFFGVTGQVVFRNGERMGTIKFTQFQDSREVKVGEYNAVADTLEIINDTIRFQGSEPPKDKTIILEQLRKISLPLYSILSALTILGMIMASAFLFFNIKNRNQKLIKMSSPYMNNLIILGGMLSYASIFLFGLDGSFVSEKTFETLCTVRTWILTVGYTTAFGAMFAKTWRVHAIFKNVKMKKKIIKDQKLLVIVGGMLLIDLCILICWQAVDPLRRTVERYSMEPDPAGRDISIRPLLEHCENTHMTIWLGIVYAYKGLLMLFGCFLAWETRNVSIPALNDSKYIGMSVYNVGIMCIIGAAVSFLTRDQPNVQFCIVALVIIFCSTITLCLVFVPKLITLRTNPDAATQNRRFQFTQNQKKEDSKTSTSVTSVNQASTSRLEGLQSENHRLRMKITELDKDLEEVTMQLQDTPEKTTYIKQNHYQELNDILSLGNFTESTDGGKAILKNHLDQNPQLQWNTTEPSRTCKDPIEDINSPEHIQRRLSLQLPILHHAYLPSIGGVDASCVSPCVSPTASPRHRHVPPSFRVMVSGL
T1 sequence (Q9Z0U4 17-960 limits assumed): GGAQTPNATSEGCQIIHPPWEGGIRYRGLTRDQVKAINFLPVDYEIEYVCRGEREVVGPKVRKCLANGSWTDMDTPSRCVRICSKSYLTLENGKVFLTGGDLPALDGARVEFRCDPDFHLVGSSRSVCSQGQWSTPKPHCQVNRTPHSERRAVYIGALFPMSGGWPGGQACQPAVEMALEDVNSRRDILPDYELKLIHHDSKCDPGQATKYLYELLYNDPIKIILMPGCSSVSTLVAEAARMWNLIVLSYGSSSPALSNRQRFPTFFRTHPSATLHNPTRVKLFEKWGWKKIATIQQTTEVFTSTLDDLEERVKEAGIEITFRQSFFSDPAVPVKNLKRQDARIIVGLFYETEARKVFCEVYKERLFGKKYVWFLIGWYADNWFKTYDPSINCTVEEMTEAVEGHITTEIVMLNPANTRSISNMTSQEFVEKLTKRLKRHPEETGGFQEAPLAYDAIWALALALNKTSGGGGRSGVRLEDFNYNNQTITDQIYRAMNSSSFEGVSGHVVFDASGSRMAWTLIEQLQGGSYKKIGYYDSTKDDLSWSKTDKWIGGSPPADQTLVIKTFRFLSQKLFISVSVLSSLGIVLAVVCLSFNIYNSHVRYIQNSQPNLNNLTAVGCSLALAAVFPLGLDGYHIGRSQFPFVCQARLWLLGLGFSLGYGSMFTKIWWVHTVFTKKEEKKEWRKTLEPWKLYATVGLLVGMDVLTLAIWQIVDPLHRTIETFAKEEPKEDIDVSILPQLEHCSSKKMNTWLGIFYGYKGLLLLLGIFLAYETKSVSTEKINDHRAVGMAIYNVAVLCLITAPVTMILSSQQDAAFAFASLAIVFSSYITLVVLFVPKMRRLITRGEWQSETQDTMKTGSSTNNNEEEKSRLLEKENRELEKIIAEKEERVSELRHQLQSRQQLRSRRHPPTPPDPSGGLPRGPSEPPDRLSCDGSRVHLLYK

| pEC50 [1] | brain exposure at 1 mg/kg [3] [ng/g] | plasma exposure at 1 mg/kg [3] [ng/mL] | Structure (SMILES) | USV inhibition at 1 mg/kg (%) [2] [%] |
| --- | --- | --- | --- | --- |
| 8.00 to 9.00 | – | – | CCCC1(C(=O)O)CCCN(c2c(C(C)C)c(C)nc3cc([C@H]4CC[C@H](C(F)(F)F)CC4)nn23)C1 (single isomer, unassigned) [Example 4] | – |
| 8.00 to 9.00 | – | – | CCCC1(C(=O)O)CCCN(c2c(C(C)C)c(C)nc3cc([C@H]4CC[C@H](C(F)(F)F)CC4)nn23)C1 (single isomer, unassigned) [Example 5] | – |
| 8.00 to 9.00 | – | – | Cc1nc2cc([C@H]3CC[C@H](C(F)(F)F)CC3)nn2c(N2CCCC(CF)(C(=O)O)C2)c1C(C)C (single isomer, unassigned) [Example 6] | – |
| > 9.00 | – | – | Cc1nc2cc([C@H]3CC[C@H](C(F)(F)F)CC3)nn2c(N2CCCC(CF)(C(=O)O)C2)c1C(C)C (single isomer, unassigned) [Example 7] | – |
| 8.00 to 9.00 | 62 | 121 | CC[C@]1(C(=O)O)CCCN(c2c(C(C)C)c(C)nc3cc([C@H]4CC[C@H](C(F)(F)F)CC4)nn23)C1 (single isomer, unassigned) [Example 12] | 59 |
| > 9.00 | 31 | 124 | CC[C@@]1(C(=O)O)CCCN(c2c(C(C)C)c(C)nc3cc([C@H]4CC[C@H](C(F)(F)F)CC4)nn23)C1 (single isomer, unassigned) [Example 13] | 97 |
| 8.00 to 9.00 | 53 | 170 | Cc1nc2c(F)c([C@H]3CC[C@H](C(F)(F)F)CC3)nn2c(N2CCC[C@](C)(C(=O)O)C2)c1C(C)C (single isomer, unassigned) [Example 15] | 89 |
| > 9.00 | 36 | 131 | Cc1nc2c(F)c([C@H]3CC[C@H](C(F)(F)F)CC3)nn2c(N2CCC[C@@](C)(C(=O)O)C2)c1C(C)C (single isomer, unassigned) [Example 16] | 100 |
| 8.00 to 9.00 | 74 | 135 | CC[C@]1(C(=O)O)CCCN(c2c(C(C)C)c(C)nc3c(F)c([C@H]4CC[C@H](C(F)(F)F)CC4)nn23)C1 (single isomer, unassigned) [Example 17] | 79 |
| > 9.00 | 30 | 175 | CC[C@@]1(C(=O)O)CCCN(c2c(C(C)C)c(C)nc3c(F)c([C@H]4CC[C@H](C(F)(F)F)CC4)nn23)C1 (single isomer, unassigned) [Example 18] | 75 |
| 7.00 to 8.00 | – | – | COc1c(C)nc2cc([C@H]3CC[C@H](C(F)(F)F)CC3)nn2c1N1CCC[C@](C)(C(=O)O)C1 (single isomer, unassigned) [Example 19] | – |
| 6.00 to 7.00 | – | – | COc1c(C)nc2cc([C@H]3CC[C@H](C(F)(F)F)CC3)nn2c1N1CCC[C@@](C)(C(=O)O)C1 (single isomer, unassigned) [Example 20] | – |
| 8.00 to 9.00 | – | – | COc1c(C)nc2c(F)c([C@H]3CC[C@H](C(F)(F)F)CC3)nn2c1N1CCC[C@](C)(C(=O)O)C1 (single isomer, unassigned) [Example 23] | – |
| 7.00 to 8.00 | – | – | COc1c(C)nc2c(F)c([C@H]3CC[C@H](C(F)(F)F)CC3)nn2c1N1CCC[C@@](C)(C(=O)O)C1 (single isomer, unassigned) [Example 24] | – |
| 7.00 to 8.00 | – | – | CC[C@]1(C(=O)O)CCCN(c2c(OC)c(C)nc3c(F)c([C@H]4CC[C@H](C(F)(F)F)CC4)nn23)C1 (single isomer, unassigned) [Example 25] | – |
| 7.00 to 8.00 | – | – | CC[C@@]1(C(=O)O)CCCN(c2c(OC)c(C)nc3c(F)c([C@H]4CC[C@H](C(F)(F)F)CC4)nn23)C1 (single isomer, unassigned) [Example 26] | – |
| 8.00 to 9.00 | – | – | Cc1nc2cc(C3CCC(F)(F)CC3)nn2c(N2CCC[C@@](C)(C(=O)O)C2)c1C(C)C (single isomer, unassigned) [Example 30] | – |

| pEC50 [1] | brain exposure at 1 mg/kg [3] [ng/g] | plasma exposure at 1 mg/kg [3] [ng/mL] | Structure (SMILES) | USV inhibition at 1 mg/kg (%) [2] [%] |
| --- | --- | --- | --- | --- |
| 7.00 to 8.00 | – | – | CC[C@@]1(C(=O)O)CCCN(c2c(C(C)C)c(C)nc3cc(C4CCC(F)(F)CC4)nn23)C1 (single isomer, unassigned) [Example 32] | – |
| 8.00 to 9.00 | – | – | Cc1nc2cc([C@H]3CC[C@H](C(F)(F)F)CC3)nn2c(N2CCC[C@H](C(=O)O)C2)c1C(C)C [Example 1, (3S)-1-[5-Methyl-6-(propan-2-yl)-2-[trans-4-(trifluoromethyl)cyclohexyl]pyrazolo[1,5-a]pyrimidin-7-yl]piperidine-3-carboxylic Acid] | – |
| 8.00 to 9.00 | 74 | 188 | Cc1nc2cc([C@H]3CC[C@H](C(F)(F)F)CC3)nn2c(N2CCC[C@](C(=O)O)(C(C)C)C2)c1C(C)C [Example 2, (3S)-1-[5-Methyl-6-(propan-2-yl)-2-[trans-4-(trifluoromethyl)cyclohexyl]-pyrazolo[1,5-a]pyrimidin-7-yl]-3-(propan-2-yl)piperidine-3-carboxylic Acid] | 85 |
| 8.00 to 9.00 | – | – | Cc1nc2cc([C@H]3CC[C@H](C(F)(F)F)CC3)nn2c(N2CCC[C@@H](C(=O)O)C2)c1C(C)C [Example 10] | – |
| 8.00 to 9.00 | – | – | Cc1nc2cc([C@H]3CC[C@H](C(F)(F)F)CC3)nn2c(N2CCC[C@@](C(=O)O)(C(C)C)C2)c1C(C)C [Example 14] | – |
| 7.00 to 8.00 | – | – | CC[C@]1(C(=O)O)CCCN(c2c(OC)c(C)nc3cc([C@H]4CC[C@H](C(F)(F)F)CC4)nn23)C1 [Example 21] | – |
| 6.00 to 7.00 | – | – | CC[C@@]1(C(=O)O)CCCN(c2c(OC)c(C)nc3cc([C@H]4CC[C@H](C(F)(F)F)CC4)nn23)C1 [Example 22] | – |
| 8.00 to 9.00 | – | – | CCc1c(C)nc2cc([C@H]3CC[C@H](C(F)(F)F)CC3)nn2c1N1CCC[C@@](C)(C(=O)O)C1 [Example 27] | – |
| 7.00 to 8.00 | – | – | CCc1c(C)nc2cc([C@H]3CC[C@H](C(F)(F)F)CC3)nn2c1N1CCC[C@@](CC)(C(=O)O)C1 [Example 28] | – |
| 7.00 to 8.00 | – | – | Cc1nc2cc(C3CCC(F)(F)CC3)nn2c(N2CCC[C@](C)(C(=O)O)C2)c1C(C)C [Example 29] | – |
| 7.00 to 8.00 | – | – | CC[C@]1(C(=O)O)CCCN(c2c(C(C)C)c(C)nc3cc(C4CCC(F)(F)CC4)nn23)C1 [Example 31] | – |
| – | 34 | 172 | CCc1nc2cc([C@H]3CC[C@H](C(F)(F)F)CC3)nn2c(N2CCC[C@@](C)(C(=O)O)C2)c1CC [Example 33] | 63 |
| 8.00 to 9.00 | – | – | C[C@@]1(C(=O)O)CCCN(c2c3c(nc4cc([C@H]5CC[C@H](C(F)(F)F)CC5)nn24)CCCC3)C1 [Example 34] | – |
| 6.00 to 7.00 | – | – | C[C@]1(C(=O)O)CCCN(c2c3c(nc4cc([C@H]5CC[C@H](C(F)(F)F)CC5)nn24)CCOC3)C1 [Example 36] | – |
| 6.00 to 7.00 | – | – | C[C@]1(C(=O)O)CCCN(c2c3c(nc4cc([C@H]5CC[C@H](C(F)(F)F)CC5)nn24)COCC3)C1 [Example 37] | – |
| 8.00 to 9.00 | – | – | Cc1nc2c(F)c(C3CCC(F)(F)CC3)nn2c(N2CCC[C@@](C)(C(=O)O)C2)c1C(C)C [Example 40] | – |
| 6.00 to 7.00 | – | – | C[C@@]1(C(=O)O)CCCN(c2c3c(nc4cc([C@H]5CC[C@H](C(F)(F)F)CC5)nn24)COCC3)C1 [Example 42] | – |
